Results published in US20060116325A1, “Methods and compositions for inhibiting hiv-coreceptor interactions” (priority 2001, published 2006).

Experiments:
CCR5 = CCR5 (Homo sapiens, UniProt P51681); experiment: Competition with 125I-MIP-1β binding to HEK-CCR5 cells; set-up: expressed in transfected cells; host or cells: HEK-293; details: high concentrations (e.g., 100 μM) of peptide required, FIG. 1
Method: Binding assays were performed with HEK-CCR5 or HEK CXCR4 in triplicate by adding unlabeled competitor (anti-coreceptor binding peptide or control chemokine) and radiolabeled chemokine, 0.2 ng/ml (^125I-MIP-1β or SDF-1α, specific activity 2000 Ci/mmol, NEN Life Science Products) to a cell suspension (4×10^5 cells in 200 μl) in RPMI 1640 supplemented with 1% bovine serum albumin and 25 mM HEPES pH 8.0 (binding medium). Cells were then incubated at 22° C. for 40 min with continuous rotation. After incubation cells were transferred to the tubes containing 800 μl of 10% sucrose in PBS and harvested by centrifugation. The supernatant was aspirated and the cell-associated radioactivity was measured using a 1272 Wallac gamma counter. […] After incubation cells were transferred to the tubes containing 800 μl of 10% sucrose in PBS and harvested by centrifugation, the supematant was aspirated and the cell-associated radioactivity was measured using a 1272 Wallac gamma counter. The data were analyzed by nonlinear regression using the computer program GraphPad Prizm 3.0.
Considering that the 15K and 15D peptides were designed in part based on their structural similarity to corresponding chemokine fragments, the binding activity of these peptides for CCR5 and/or CXCR4 receptors, and corresponding anti-coreceptor binding activity against chemokines, was assessed.

CXCR4 [1] = target: T1, CXCR4 (Homo sapiens, UniProt P61073); experiment: Competition with 125I-SDF-1α binding to CEMx174 cells; set-up: host or cells: CEMx174 (174xCEM); details: room temperature, 0.1% sodium azide, FIG. 7B, 7C
T1 sequence (P61073 whole entry): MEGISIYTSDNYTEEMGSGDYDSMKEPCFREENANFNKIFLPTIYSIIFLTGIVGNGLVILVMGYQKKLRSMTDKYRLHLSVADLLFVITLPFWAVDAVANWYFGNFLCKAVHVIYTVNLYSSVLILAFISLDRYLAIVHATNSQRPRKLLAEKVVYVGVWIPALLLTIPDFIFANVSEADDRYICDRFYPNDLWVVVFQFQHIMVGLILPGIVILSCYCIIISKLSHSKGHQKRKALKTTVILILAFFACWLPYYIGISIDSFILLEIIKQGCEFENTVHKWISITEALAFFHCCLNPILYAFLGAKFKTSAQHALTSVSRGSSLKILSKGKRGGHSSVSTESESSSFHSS
Method: FIGS. 7A through 7C depicts the inhibition of chemokine receptor ligand binding by peptide pre-treatment. FIG. 7A. Effect of pre-treatment with peptides 15K and 15D on the binding of MIP-1β to SupT1/CCR5 cells; FIG. 7B. Effect of pre-treatment with peptides 15K and 1SD on the binding of SDF-1α to CEMx174 cells; and FIG. 7C. Effect of pre-treatment with 15K and control peptide 15GIG on the binding of SDF-1α to CEmx174 cells. Binding studies were performed as described in Materials and Methods.
Binding assays were performed with HEK-CCR5 or HEK CXCR4 in triplicate by adding unlabeled competitor (anti-coreceptor binding peptide or control chemokine) and radiolabeled chemokine, 0.2 ng/ml (^125I-MIP-1β or SDF-1α, specific activity 2000 Ci/mmol, NEN Life Science Products) to a cell suspension (4×10^5 cells in 200 μl) in RPMI 1640 supplemented with 1% bovine serum albumin and 25 mM HEPES pH 8.0 (binding medium). Cells were then incubated at 22° C. for 40 min with continuous rotation. After incubation cells were transferred to the tubes containing 800 μl of 10% sucrose in PBS and harvested by centrifugation. The supernatant was aspirated and the cell-associated radioactivity was measured using a 1272 Wallac gamma counter. Binding assays were performed with the 174xCEM and Sup-T1 cells expressing CCR5 in duplicates by adding unlabeled competitor (peptide or control chemokine) and radiolabeled chemokine, 0.2 ng/ml (^125I-MIP-1β or ^125I-SDF-1α, specific activity 2000 Ci/mmol, NEN life Science Products) to 300 μl cell suspension (4×10^6 cells/ml) in RPMI 1640 supplemented with 1% bovine serum albumin, 0.1% sodium azide and 25 mM HEPES pH 8.0 (binding medium). Cells were then incubated at 22° C. for 30 min with continuous rotation. After incubation cells were transferred to the tubes containing 800 μl of 10% sucrose in PBS and harvested by centrifugation, the supematant was aspirated and the cell-associated radioactivity was measured using a 1272 Wallac gamma counter. The data were analyzed by nonlinear regression using the computer program GraphPad Prizm 3.0. […]

CXCR4 [2] = target: T1, CXCR4; experiment: Binding of anti-CXCR4 antibody 12G5 to CEMx174 cells (flow cytometry); set-up: host or cells: CEMx174 (174xCEM); details: for inhibition of 12G5 antibody binding to CXCR4: CEMx174 cells, preincubation 60 min 22° C., FIG. 5
Method: FIG. 5A. Dose dependent effect of peptide 15K in comparison with SDF-1α. FIG. 5B. The comparison of the effects of 15K and 15D. FIG. 5C. The comparison of the effects of 15K and 15KS. Cells were preincubated at 22° C. with peptides at designated concentrations of SDF-1α for 60 min. Then cells were incubated with FITC-labeled anti-human CXCR4 monoclonal antibodies 12G5 for 40 min at 22° C. and washed with FACS buffer prior to flow cytometry.
CEMx174 cells were pelleted and resuspended at 10^6 cells/ml in PBS containing 1% BSA and 0.1% sodium azide (FACS buffer). Cells were then preincubated with designated concentrations of peptides or SDF-1-α (1 μg/ml) at 22° C. for 60 min. FITC-labeled anti-human CXCR4 antibody (clone 12G5, BD PharMingen, San Diego, Calif.) was added to the cells per the manufactures instructions and further incubated at 22° C. for 40 minutes. Cells were extensively washed with FACS buffer and analyzed using a FACS Calibur flowcytometer (Becton Dickinson). HEK/CCR5 cells were suspended in Dulbecco's PBS containing 1% FCS and 0.05% NaN3 (10^4 cells in 100 μl) and incubated with or without 5 μg of MIP-1β (PeproTech, Rocky Hill, N.J.), 0.1 mM peptide 15D or 15K for 45 min at 22° C. Cells were then treated with FITC-conjugated anti-human CCR5 antibody (2D7; BD PharMingen, San Diego, Calif.), and incubated for 30 min at 22° C. Cells were washed twice, and analyzed using a FACScan flow cytometer (Becton Dickinson Immunocytometry Systems, San Jose, Calif.).
To determine if peptides 15D and 15K interact directly with chemokine receptors the effect of these and control peptides on the binding of anti-chemokine receptor antibodies to CXCR4 and CCR5 was studied. The monoclonal antibody 12G5 recognizes a conformational extracellular epitope on CXCR4. This antibody blocks the infectivity of some X4 strains of HIV-1 and HIV-2 (Endres et al., Cell 87:745-756, 1996; Hoxie et al., J. Reprod. Immunol. 41:197-211(1998); McKnight et al., J. Virol. 74:1692-1696(1997), 19, 26). […] Further, the binding of 12G5 to CXCR4 receptor-expressing cells is prevented by anti-HIV compounds. […] 73:2752-2761, 1999. To determine the importance of the particular amino acid sequence of the inhibitory activity of the peptides. The effects of peptide 15K and the corresponding scrambled peptide 15KS on binding of 12G5 to CXCR4 was compared. […] Apparently there is a direct correlation between the ability of 15K to inhibit the anti-CXCR4 antibody binding and its ability to inhibit HIV-1 infectivity since the scrambled peptide 15KS with the same amino acid comparison has reduced ability to manifest both these activities.

CCR5, sequence (P51681 whole entry): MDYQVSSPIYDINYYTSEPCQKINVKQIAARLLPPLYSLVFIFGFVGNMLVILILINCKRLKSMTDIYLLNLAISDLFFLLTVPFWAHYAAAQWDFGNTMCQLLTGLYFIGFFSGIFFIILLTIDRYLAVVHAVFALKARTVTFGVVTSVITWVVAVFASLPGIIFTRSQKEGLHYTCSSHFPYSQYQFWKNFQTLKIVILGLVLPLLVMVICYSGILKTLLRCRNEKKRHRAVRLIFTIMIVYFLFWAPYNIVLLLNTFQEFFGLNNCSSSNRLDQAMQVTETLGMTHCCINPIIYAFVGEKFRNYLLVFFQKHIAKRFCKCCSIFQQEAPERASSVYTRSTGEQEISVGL

Row | Substance | inhibition of radiolabeled MIP-1β binding to cells expressing CCR5 (CCR5) | inhibition of SDF-1α binding to CXCR4 (CXCR4 [1]) | inhibition of 12G5 antibody binding to CXCR4 (CXCR4 [2]) | inhibition of 12G5 antibody binding compared with SDF-1α (CXCR4 [2]; peptide at 50 μg/ml versus SDF-1α, FIG. 5A)
1 | I R K A H C N I S R A D W N D [Peptide 15D] | significantly inhibit chemokine binding | competitively inhibited chemokine binding | less effective | –
2 | IRKAHCNISRAKWND [Peptide 15K] | significantly inhibit chemokine binding | competitively inhibited chemokine binding | inhibited the binding of the 12G5 antibody to CXCR4 in a dose-dependent manner | approached the efficacy of SDF-1α
